Assay results from ChEMBL document CHEMBL1137058, “Novel 2-oxoimidazolidine-4-carboxylic acid derivatives as hepatitis C virus NS3-4A serine protease inhibitors: synthesis, activity, and X-ray crystal structure of an enzyme inhibitor complex” (Bioorg Med Chem Lett, 2004).

Target: NS3 (Hepatitis C virus, UniProt A3EZJ3)
Experiment: Inhibition of Hepatitis C virus NS3 serine protease
Set-up: species or system Hepacivirus hominis

Sequence of NS3 (A3EZJ3 whole entry): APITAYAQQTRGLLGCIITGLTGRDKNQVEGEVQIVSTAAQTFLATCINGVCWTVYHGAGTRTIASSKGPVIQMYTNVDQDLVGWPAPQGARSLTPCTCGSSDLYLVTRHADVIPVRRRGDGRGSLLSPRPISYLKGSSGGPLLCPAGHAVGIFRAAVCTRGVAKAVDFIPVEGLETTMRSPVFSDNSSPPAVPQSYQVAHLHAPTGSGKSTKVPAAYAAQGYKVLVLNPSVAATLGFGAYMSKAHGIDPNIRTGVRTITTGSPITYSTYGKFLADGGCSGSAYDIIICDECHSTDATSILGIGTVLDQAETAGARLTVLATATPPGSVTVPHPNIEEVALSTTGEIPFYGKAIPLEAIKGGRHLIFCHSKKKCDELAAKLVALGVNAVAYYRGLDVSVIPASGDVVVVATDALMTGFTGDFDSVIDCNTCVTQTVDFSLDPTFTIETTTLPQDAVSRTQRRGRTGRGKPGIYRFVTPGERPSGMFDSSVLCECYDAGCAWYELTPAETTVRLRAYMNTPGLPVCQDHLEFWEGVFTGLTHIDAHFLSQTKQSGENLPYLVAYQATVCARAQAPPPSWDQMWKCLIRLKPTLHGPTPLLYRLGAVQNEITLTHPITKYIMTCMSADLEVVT

Compound | Ki [µM]
C=CCOC(=O)CNC(=O)C(=O)C(CCC)NC(=O)[C@@H]1CN(Cc2ccc(Cl)c(Cl)c2)C(=O)N1C(=O)[C@@H](NC(=O)[C@@H](NC(=O)[C@H](CCC(=O)OC(C)(C)C)NC(=O)[C@H](CCC(=O)OC(C)(C)C)NC(C)=O)C(C)C)C(C)C (stereo partly specified) | > 100
C=CCNC(=O)C(=O)[C@H](CCC)NC(=O)[C@@H]1CNC(=O)N1C(=O)[C@@H](NC(=O)[C@@H](NC(=O)[C@H](CCC(=O)OC(C)(C)C)NC(=O)[C@H](CCC(=O)OC(C)(C)C)NC(C)=O)C(C)C)C(C)C | 69
C=CCOC(=O)CNC(=O)C(=O)C(CCC)NC(=O)[C@@H]1CN(Cc2ccccc2)C(=O)N1C(=O)[C@@H](NC(=O)[C@@H](NC(=O)[C@H](CCC(=O)OC(C)(C)C)NC(=O)[C@H](CCC(=O)OC(C)(C)C)NC(C)=O)C(C)C)C(C)C (stereo partly specified) | > 100
C=CCNC(=O)C(=O)[C@H](CCC)NC(=O)[C@@H]1CN(Cc2ccccc2)C(=O)N1C(=O)[C@@H](NC(=O)[C@@H](NC(=O)[C@H](CCC(=O)OC(C)(C)C)NC(=O)[C@H](CCC(=O)OC(C)(C)C)NC(C)=O)C(C)C)C(C)C | 61
C=CCNC(=O)C(=O)[C@H](CCC)NC(=O)[C@@H]1CNC(=O)N1C(=O)[C@@H](NC(=O)[C@@H](NC(=O)[C@H](CCC(=O)O)NC(=O)[C@H](CCC(=O)O)NC(C)=O)C(C)C)C(C)C | 46
C=CCNC(=O)C(=O)C(CCC)NC(=O)[C@@H]1CN(CC(=O)OCC)C(=O)N1C(=O)[C@@H](NC(=O)OC(C)(C)C)C(C)C (stereo partly specified) | 150

Now those with a lower Ki, led by results:

Ki [µM] | Compound
1 | C=CCOC(=O)CNC(=O)C(=O)[C@H](CCC)NC(=O)[C@@H]1CN(Cc2ccccc2)C(=O)N1C(=O)[C@@H](NC(=O)[C@@H](NC(=O)[C@H](CCC(=O)O)NC(=O)[C@H](CCC(=O)O)NC(C)=O)C(C)C)C(C)C
1 | C=CCNC(=O)C(=O)[C@H](CCC)NC(=O)[C@@H]1CN(Cc2ccccc2)C(=O)N1C(=O)[C@@H](NC(=O)[C@@H](NC(=O)[C@H](CCC(=O)O)NC(=O)[C@H](CCC(=O)O)NC(C)=O)C(C)C)C(C)C
4 | C=CCNC(=O)C(=O)[C@H](CCC)NC(=O)[C@@H]1CN(CC(=O)OCC)C(=O)N1C(=O)[C@@H](NC(=O)[C@@H](NC(=O)[C@H](CCC(=O)O)NC(=O)[C@H](CCC(=O)O)NC(C)=O)C(C)C)C(C)C
0.31 | C=CCOC(=O)CNC(=O)C(=O)[C@H](CCC)NC(=O)[C@@H]1CN(Cc2ccc(Cl)c(Cl)c2)C(=O)N1C(=O)[C@@H](NC(=O)[C@@H](NC(=O)[C@H](CCC(=O)O)NC(=O)[C@H](CCC(=O)O)NC(C)=O)C(C)C)C(C)C
30 | C=CCNC(=O)C(=O)[C@H](CCC)NC(=O)[C@@H]1CN(CC(=O)OCC)C(=O)N1C(=O)[C@@H](NC(=O)[C@@H](NC(=O)[C@H](CCC(=O)OC(C)(C)C)NC(=O)[C@H](CCC(=O)OC(C)(C)C)NC(C)=O)C(C)C)C(C)C
